Measurements reported in publication PMC6839601, “Discovery of selective, antimetastatic and anti-cancer stem cell metallohelices via post-assembly modification” (Chemical Science, 2019).

Columns and labels:
HCT116 p53+/+ cells = test: Inhibition of HCT116 colonosphere formation; type: cell-based, human; settings: IC30 for 72 h, then 6 days
Protocol: Cells were treated with drug (IC30 concentration) for 72 h, washed, harvested with StemPro Accutase, and plated in ultra-low attachment 96-well culture plates (300 cells per well). Cells were cultured in for 6 days without disturbing the plates or replenishing the medium and the number/size of spheres were determined using an inverted microscope.
10. Anti-cancer stem cell study
10.1 Inhibition of HCT116 colonsphere formation
HCT116 p53+/+ (adherent) cells were treated with  Δ-[Fe 2L13]Cl4,  Δ-[Fe 2L3a3]Cl4 and
salinomycin (at their IC30 values) for 72 h. Cells were then washed with PBS, harvested by
StemProAccutase (Gibco) and plated in ultralow-attachment 96w culture plates (Corning)
(300cells per well). Cells were cultured in DMEM/F12 supplemented with B27 (-vitA, Gibco,
ngmL-1 FGF2 (Sigma, F0291) for 6 days without disturbing the plates and without replenishing
(§1) the medium. The number and size of spheres were determined using an inverted microscope.
Supplementary Table 3. Quantification of colonospheres formation in HCT116 p53+/+ cells untreated or treated […]
aThe results are expressed as mean ± SD of three independent experiments.
Supplementary Figure 27. Quantification of colonosphere formation in HCT116 p53+/+ colonospheres untreated
or treated with the investigated compounds at their respective IC30 values for 72 h. The results are expressed as […]

HCT116.CD133+ cells = test: Inhibition of HCT116.CD133+ colonosphere formation; type: cell-based, human; settings: IC30 values for 6 days
Protocol: (§2) Supplementary Figure 28. Representative images of the HCT116 p53 +/+ colonospheres untreated or treated
(§3) with the investigated compounds at their respective IC 30 values for 72 h. Scale bars: 100 µm.
(§4) colonosphere formation similarly or more effectively than  Δ-[Fe 2L13]Cl4 and salinomycin, a
(§5) well-established CSC-potent agent.
(§6) 10.2 Separation of HCT116.CD133 + and HCT116.CDD133 - cells by magnetically
(§7) activated cell sorting (MACS)
(§8) Positive selection with a single marker of CD133/1 (AC133) was used to enrich for CSCs. The
(§9) cells were harvested by non-enzymatic Cell Stripper (Corning), prepared into single cell
(§10) suspension (30 µm strainer) and counted. Approx. 2×10^7 cells were obtained for cell sorting.
(§11) For a selection of CD133 single positive cells, the cells were stained with the APC-conjugated
(§12) incubated for 20 min at 4-8 °C. The cells were washed with buffer (PBS, 0.5% BSA, pH 7.2;
(§13) prepared by diluting MACS BSA Stock Solution (130-091-376) 1:20 with auto MACS Rinsing
(§14) Solution (130-091-222)) and incubated with Anti-APC Micro Bead (Miltenyi Biotec, 130-090- […]
(§15) three-times in Buffer and analyzed on BD FACSVerse flow cytometer (San Jose, CA, USA);
(§16) the data were analyzed using BD FACSSuite software.
(§17) Supplementary Figure 29. Representative histograms displaying the red fluorescence emitted by anti-CD133- […]
as §1

HCT116.CD133- cells = test: Inhibition of HCT116.CD133- colonosphere formation; type: cell-based, human; settings: IC30 values for 6 days
Protocol: as §2, §3, §4, §5, §6, §7, §8, §9, §10, §11, §12, §13, §14, §15, §16, §17, §1

[1] = tested on: CSC enriched HCT116.CD133+ cells; test: Cytotoxicity in HCT116.CD133+ cells, SRB assay; type: cell-based; settings: Homo sapiens, 72 h, read-out: IC50 HCT116.CD133+
Excerpt: Supplementary Figure 30. Growth inhibitory effects in HCT116.CD133- and HCT116.CD133+ cancer cells.
Representative microscopy images of the HCT116.CD133- colonospheres in the absence (a) and presence of […]
salinomycin (b), Δ-[Fe 2L13]Cl4 (c), and Δ-[Fe 2L3a3]Cl4 (d), treated at their respective IC30 values for 6 days (scale […]
bar: 100 µm). Quantification of colonosphere formation from HCT116.CD133+ (e) and HCT116.CD133- (f,g) […]
under the same conditions. Data represent the mean value and SD from three independent experiments. p < 0.01, […]
10.5 Cytotoxicity in HCT116.CD133 + cells, SRB assay
Sorted HCT116.CD133+ cells were plated in 96w culture plates (TPP) (3000 cells per well) […]
and cultured for 3 days to allow cells to recover after sorting and to grow to the desired density.
Cells were then treated with different concentrations of the investigated compounds, […]
with Tris base (pH 10.5). The absorbance at 570 nm was measured using a SUNRISE Tecan […]
absorbance reader (Schoeller). The IC50 values were calculated from curves constructed by […]
plotting cell survival (%) versus drug concentration (μM). The reading values were converted […]
to the percentage of control (% cell survival). Cytotoxic effects were expressed as IC 50. […]
determined with SRB assay. a […]
aThe cells were treated for 72 h. The results are expressed as mean ± SD of three independent experiments. […]

HCT116p53+/+ = test: Cytotoxicity in HCT116 p53+/+ cells, SRB assay; type: cell-based; settings: Homo sapiens, HCT-116, 72 h, read-out: IC50 HCT116p53+/+
Na+/K+ ATPase = test: Rubidium based assay for detection of Na+/K+ ATPase activity; parameters: species or system human; settings: A2780 and HCT116 p53+/+ cell lines, 10 μM for 6 h, then RbCl (5.4 mM) 3 h, ICP-MS
Protocol: Cells were seeded in 6-well plates and incubated for 24 h at 37 °C in an atmosphere of 5% CO2. Cells were then incubated with drug for 6 h, and subsequently the medium was removed and cells were washed with PBS. Cells were then incubated with RbCl (5.4 mM) for 3 h, washed and counted. Rubidium content was determined by ICP-MS.
8.4 Real-time cell growth monitoring
Real-time Cell Analyzer (RTCA) (xCELLigence RTCA SP Instrument, ROCHE) was employed for growth monitoring of cells in the absence and the presence of tested compounds.
After the background of E-plates reading (100 µL medium), the cells were added (5x10^3 cells/well; 50 µL) and grown for 22-28 h. Tested compounds at varying concentrations were then added in 50 µL of media. The impedance was monitored for additional 80 h. An arbitrary unit CI (cell index) is a quantitative measure reflecting the status of the cells (number of attached cells and cell status such as morphology) in an electrode-containing well. Normalized CI at a given time point is given by dividing CI at the time point by CI at a reference time point.
8.5 Rubidium based assay for detection of Na +/K+ ATPase activity
The cells were seeded on 6-well plates (5× 10^5 cells/dish) and incubated overnight. The cells were treated with the investigated compounds for 6 h at 10 µM concentration. […] The cells were then harvested, washed trice with PBS, counted and pelleted. […]

CC[C@@H](C(=O)[C@@H](C)[C@@H](O)[C@H](C)[C@@H]1O[C@@H]([C@@H](CC)C(=O)O)CC[C@@H]1C)[C@H]1O[C@]2(C=C[C@@H](O)[C@]3(CC[C@@](C)([C@H]4CC[C@](O)(CC)[C@H](C)O4)O3)O2)[C@H](C)C[C@@H]1C [Salinomycin, salinomycin]
Diameter of colonospheres (HCT116 p53+/+ cells; control 96 ± 20): 76 ± 17 µm | Spheres/1000cells (HCT116 p53+/+ cells; control 224 ± 14): 142 ± 14 | inhibition of colonosphere formation from HCT116.CD133+ cells (HCT116.CD133+ cells): effectively inhibit | inhibition of colonosphere formation from HCT116.CD133- cells (HCT116.CD133- cells): do not significantly inhibit | IC50 [1]: 1120 ± 230 nM | IC50 (HCT116p53+/+): 1480 ± 210 nM

C[C@@H]1O[C@@H](O[C@H]2C[C@@H](O)[C@]3(CO)[C@H]4[C@H](O)C[C@]5(C)[C@@H](C6=CC(=O)OC6)CC[C@]5(O)[C@@H]4CC[C@]3(O)C2)[C@H](O)[C@H](O)[C@H]1O [ouabain]
inhibition of Rb+ uptake (Na+/K+ ATPase): 39–57%
